These results are taken from US20050266512A1, “Detection of proteases and screening for protease inhibitors” (priority 2000, published 2005).

This assay concerns horse erythrocytes. Briefly: Hemolytic plate assay (erythrocyte lysis, decrease in absorbance). The format is cell-based. Conditions: FIG. 1. The protocol: The HIV-1 proaerolysin variant generated in EXAMPLE 3 was incubated with varying concentrations of an HIV protease-containing sample in a microtiter plate (HIV-1 protease obtained from BACHEM, Torrance, Calif.). The HIV-1 proaerolysin variant (1.5×10^−6 M) was diluted 1:16 in PBS to a final volume of 100 μl and added to the first column of wells of a 96 well plate. Various concentrations of HIV-protease containing samples, ranging from 10 to 500 ng of HIV-1 protease in a final volume of 100 μl, were added to each of the 8 wells of the first column of the microtiter plate, and the plate incubated for four hours.
After incubation, the samples were serially diluted 1:2 by adding 100 μl of PBS to the first column of wells, mixing and transferring 100 μl sequentially to each of the wells in every row. Then, 100 μl of washed horse erythrocytes were added to all wells so that the final erythrocyte concentration was 0.4%. […]

Regarding “HIV-1 proaerolysin variant: proaerolysin variant in which the normal activation sequence KVRRAR was replaced with the HIV-1 protease sensitive sequence QNYPIV”, the “absorbance (erythrocyte lysis)” value (HIV variant of proaerolysin activated with HIV protease, absorbance at 600 nm, listed as HIV variant of proaerolysin) is “decrease in absorbance” and the “absorbance (erythrocyte lysis)” value (HIV variant of proaerolysin activated with HIV protease, absorbance at 600 nm, listed as proaerolysin variant) was “lysis of the erythrocytes”.

For the substance “native proaerolysin: precursor form of the aerolysin toxin, a 52 kDa protein produced by bacteria in the genus Aeromonas”, under “native proaerolysin activated with trypsin”, the “absorbance (erythrocyte lysis)” value is listed as “decrease in absorbance”.
